These results are taken from patent US11993821B2, “Co-crystallized sweeteners” (FIRMENICH SA, priority 2012, dated 2024).

A short description of this data set: Dissolution measurements (Distek 2100B USP 2 dissolution system, UV/Vis probe at 324 nm). The format is physicochemical. As to conditions: 1 L deionized water, 200 rpm, amount for 20 ppm Compound I. The protocol: Dissolution Measurements: The performance of the sucrose/Compound I co-crystallized product was compared to that of the Compound I starting material and sucrose/Compound I powder mixtures under standard conditions using a Distek 2100B USP 2 dissolution system. Sufficient amounts of each sample were added in order to create 20 ppm solutions of Compound I. These amounts were 20 mg of pure Compound I, 200 mg of the 10% mixtures, 400 mg of the 5% mixtures and 2.00 g of the 1% mixtures in 1 L of deionized water. A stirring rate of 200 rpm was used.
The concentration of Compound I in solution was monitored continuously as a function of time using a UV/Vis spectrometer probe which measured absorbance at 324 nm.

For `CCCNC(=O)C(C)(C)COc1cccc2c1C(N)=NS(=O)(=O)N2` [100% Compound I, 3-(4-amino-2,2-dioxide-1H-benzo[c][1,2,6]thiadiazin-5-yloxy)-2′,2′-dimethyl-N-propylpropanamide], the Concentration in solution reads like this: (Compound I in solution at 0.083 min) −0.5 ppm; (Compound I in solution at 2 min) 0.4 ppm; (Compound I in solution at 5 min) 1.4 ppm; (Compound I in solution at 10 min) 3.5 ppm; (Compound I in solution at 25 min) 8.3 ppm; (Compound I in solution at 50 min) 14.5 ppm. In addition, where the note is “Compound I in solution at 100 min”, the Concentration in solution turned out to be 20.9 ppm.
